From ChEMBL document CHEMBL1201862, “PubChem BioAssay data set” (2004)
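96-well plates; 48 h exposure; 5 concentrations. Endpoints by linear interpolation between flanking doses. Not reached: highest tested concentration assigned. GI50: concentration for 50% inhibition of growth.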 The source made the active and inactive calls. Rule as the data show it: active = GI50 up to about 1.1 µM and inactive = higher.

Assays:
Experiment in all cases: NCI anticancer screen, dose series, 48 h
A498 = tested on: A498
NCI-H23 = tested on: NCI-H23
SW-620 = tested on: SW-620
DMS-114 = tested on: DMS-114
HCT-116 = tested on: HCT-116
TK-10 = tested on: TK-10
K562 = tested on: K562
HCT-15 = tested on: HCT-15
DMS-273 = tested on: DMS-273
SNB-19 = tested on: SNB-19
HOP-62 = tested on: HOP-62
MOLT-4 = tested on: MOLT-4
CCRF-CEM = tested on: CCRF-CEM
OVCAR-3 = tested on: OVCAR-3
UACC-62 = tested on: UACC-62
HL-60 = tested on: HL-60
OVCAR-5 = tested on: OVCAR-5
CAKI-1 = tested on: CAKI-1

SMILES	GI50 (A498)	GI50 (NCI-H23)	GI50 (SW-620)	GI50 (DMS-114)	GI50 (HCT-116)	GI50 (TK-10)	GI50 (K562)	GI50 (HCT-15) [µM]	GI50 (DMS-273)	GI50 (SNB-19)	GI50 (HOP-62)	GI50 (MOLT-4)	GI50 (CCRF-CEM)	GI50 (OVCAR-3)	GI50 (UACC-62)	GI50 (HL-60)	GI50 (OVCAR-5)	GI50 (CAKI-1)
CCOC(=O)C1=C(C)C2C3C(=O)NC(=O)C3C1(C)C1C(=O)NC(=O)C21 (stereo not given)	> 100 µM (inactive)	> 100 µM (inactive)	> 100 µM (inactive)	> 100 µM (inactive)	> 100 µM (inactive)	> 100 µM (inactive)	> 100 µM (inactive)	> 100	> 100 µM (inactive)	> 100 µM (inactive)	> 100 µM (inactive)	> 100 µM (inactive)	> 100 µM (inactive)	59.7 µM (inactive)	> 100 µM (inactive)	> 100 µM (inactive)	–	–
Cc1cccc(C2=NC(C)(C)C(C)(C)N=C2c2cccc(C)n2)n1	> 100 µM (inactive)	30.1 µM (inactive)	> 100 µM (inactive)	30.8 µM (inactive)	35.4 µM (inactive)	> 100 µM (inactive)	41.8 µM (inactive)	> 100	> 100 µM (inactive)	> 100 µM (inactive)	> 100 µM (inactive)	–	71 µM (inactive)	44.1 µM (inactive)	> 100 µM (inactive)	53.6 µM (inactive)	> 100 µM (inactive)	> 100 µM (inactive)
COc1ccc(/C(=C\c2cc(OC)c(OC)c(OC)c2)C(=O)O)cc1	15.9 µM (inactive)	–	35 µM (inactive)	25.2 µM (inactive)	29 µM (inactive)	87.9 µM (inactive)	25.8 µM (inactive)	32.1	23.3 µM (inactive)	54.2 µM (inactive)	37.1 µM (inactive)	27.5 µM (inactive)	32.5 µM (inactive)	32 µM (inactive)	37 µM (inactive)	21.3 µM (inactive)	–	30.4 µM (inactive)
CC1=N/C(=C\c2ccc(/C=C3/N=C(C)OC3=O)cc2)C(=O)O1	> 100 µM (inactive)	> 100 µM (inactive)	> 100 µM (inactive)	> 100 µM (inactive)	> 100 µM (inactive)	> 100 µM (inactive)	> 100 µM (inactive)	> 100	> 100 µM (inactive)	> 100 µM (inactive)	> 100 µM (inactive)	> 10 µM (inactive)	> 100 µM (inactive)	> 100 µM (inactive)	> 100 µM (inactive)	–	> 10 µM (inactive)	> 100 µM (inactive)
O=C(CCc1cc(-c2ccc(F)cc2)n[nH]1)N(Cc1ccccc1)Cc1ccccc1	> 100 µM (inactive)	> 100 µM (inactive)	> 100 µM (inactive)	> 100 µM (inactive)	> 100 µM (inactive)	> 100 µM (inactive)	> 100 µM (inactive)	> 100	> 100 µM (inactive)	> 100 µM (inactive)	> 100 µM (inactive)	> 100 µM (inactive)	> 100 µM (inactive)	> 100 µM (inactive)	> 100 µM (inactive)	–	> 100 µM (inactive)	> 100 µM (inactive)
CCN(CC)CCN(C)CC(C)(C)C(=O)/C=C/c1ccccc1	4.11 µM (inactive)	12.6 µM (inactive)	11.5 µM (inactive)	6.58 µM (inactive)	–	22.2 µM (inactive)	0.0693 µM (active)	12.5	13 µM (inactive)	15.1 µM (inactive)	22.1 µM (inactive)	5.16 µM (inactive)	4.99 µM (inactive)	13.5 µM (inactive)	12.7 µM (inactive)	6.22 µM (inactive)	14 µM (inactive)	11.8 µM (inactive)
